In patent US10022317B2, “Composition comprising an extract of herbal medicine processed by an oriental herbal medicine processing” (AMOREPACIFIC CORPORATION, priority 2013, dated 2018):

Tests used:
collagenase = experiment: Collagenase expression inhibiting effect in human fibroblasts (collagenase kit, absorbance 405 nm); type: cell-based; conditions: 10^-4 M in serum-free DMEM, 24 hours, relative to non-treated group as 100
Description: The collagenase production inhibiting activity of the substances of Comparative Examples and Examples was compared with tocopherol and EGCG as control substances.
Human fibroblasts were seeded onto a 96-well plate holding Dulbecco's modified Eagle's medium (DMEM) comprising 2.5% fetal bovine serum, with 5,000 cells/well, and cultured until ˜90% confluency. The cells were further cultured in serum-free DMEM for 24 hours and treated with the mixture of oriental herbal medicine processed ginseng polysaccharide and green tea polysaccharide prepared in Comparative Examples 1-5 and Examples 1-6 at 10^−4 M in serum-free DMEM for 24 hours. Then the cell culture was collected.
The degree of collagenase production from the collected cell culture was measured using a commercially available collagenase kit (Amersham Pharmacia, USA). […]
Absorbance was measured at 405 nm using a spectrophotometer and the expression level of collagenase was calculated according to Equation 1. The expression level was calculated with respect to the non-treated control group. Expression level of collagenase (%)=[…]{(Absorbance of cells treated with substances of Comparative Example or Example÷Absorbance of control)×100} [Equation 1] […]

procollagen = experiment: Procollagen production promoting effect in human fibroblasts (procollagen type-1 C-peptide EIA kit); type: cell-based; conditions: 10^-4 M in serum-free DMEM, 24 hours, relative to non-treated group as 100
Description: The procollagen production promoting activity of the substances of Comparative Examples and Examples was compared with that of vitamin C. Human fibroblasts were seeded onto a 96-well plate holding Dulbecco's modified Eagle's medium (DMEM) comprising 2.5% fetal bovine serum, with 5,000 cells/well, and cultured until ˜90% confluency. The cells were further cultured in serum-free DMEM for 24 hours and treated with the mixture of oriental herbal medicine processed ginseng polysaccharide and green tea polysaccharide prepared in Comparative Examples 1-5 and Examples 1-6 and vitamin C dissolved to 10^−4 M in serum-free DMEM for 24 hours. 24 hours later, the amount of free procollagen was measured using the procollagen type-1 C-peptide EIA kit (MK101, Takara, Japan). The level of procollagen production is given in Table 2 relative to the non-treated group as 100.

Tocopherol
Expression level of collagenase (%) (collagenase): 76%

O=C(O[C@@H]1Cc2c(O)cc(O)cc2O[C@@H]1c1cc(O)c(O)c(O)c1)c1cc(O)c(O)c(O)c1 [EGCG]
Expression level of collagenase (%) (collagenase): 63%

O=C1O[C@H]([C@@H](O)CO)C(O)=C1O [Vitamin C]
Level of procollagen production (%) (procollagen): 121%
